Columns and labels:
Type in all cases: in vivo
[1] = system: Setaria faberi (SETFA); assay: Post-emergence herbicidal glasshouse test on Setaria faberi; details: post-emergence; 1000 g/h; evaluated after 13 days
Outline: (§1)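 Plants sprayed 1 day (pre-emergence) or 8 days (post-emergence) after sowing with compound at 1000 g/h in acetone/water 50:50 with 0.5% Tween 20; glasshouse 24/16° C, 14 h light, 65% humidity. Damage assessed after 13 days, scored 1–5 (5 = 80-100%, 1 = 0-19%).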

[2] = system: Solanum nigrum (SOLNI); assay: Post-emergence herbicidal glasshouse test on Solanum nigrum; details: post-emergence; 1000 g/h; evaluated after 13 days
Outline: as §1

[3] = system: Ipomoea hederacea (IPOHE); assay: Pre-emergence herbicidal glasshouse test on Ipomoea hederacea; details: pre-emergence; 1000 g/h; evaluated after 13 days
Outline: as §1

[4] = system: Alopecurus myosuroides (ALOMY); assay: Post-emergence herbicidal glasshouse test on Alopecurus myosuroides; details: post-emergence; 1000 g/h; evaluated after 13 days
Outline: as §1

[5] = system: Solanum nigrum (SOLNI); assay: Pre-emergence herbicidal glasshouse test on Solanum nigrum; details: pre-emergence; 1000 g/h; evaluated after 13 days
Outline: as §1

[6] = system: Echinochloa crus-galli (ECHCG); assay: Post-emergence herbicidal glasshouse test on Echinochloa crus-galli; details: post-emergence; 1000 g/h; evaluated after 13 days
Outline: as §1

[7] = system: Echinochloa crus-galli (ECHCG); assay: Pre-emergence herbicidal glasshouse test on Echinochloa crus-galli; details: pre-emergence; 1000 g/h; evaluated after 13 days
Outline: as §1

[8] = system: Amaranthus retoflexus (AMARE); assay: Pre-emergence herbicidal glasshouse test on Amaranthus retoflexus; details: pre-emergence; 1000 g/h; evaluated after 13 days
Outline: as §1

[9] = system: Amaranthus retoflexus (AMARE); assay: Post-emergence herbicidal glasshouse test on Amaranthus retoflexus; details: post-emergence; 1000 g/h; evaluated after 13 days
Outline: as §1

[10] = system: Ipomoea hederacea (IPOHE); assay: Post-emergence herbicidal glasshouse test on Ipomoea hederacea; details: post-emergence; 1000 g/h; evaluated after 13 days
Outline: as §1

[11] = system: Alopecurus myosuroides (ALOMY); assay: Pre-emergence herbicidal glasshouse test on Alopecurus myosuroides; details: pre-emergence; 1000 g/h; evaluated after 13 days
Outline: as §1

[12] = system: Setaria faberi (SETFA); assay: Pre-emergence herbicidal glasshouse test on Setaria faberi; details: pre-emergence; 1000 g/h; evaluated after 13 days
Outline: as §1

| SMILES | POST Application SETFA herbicidal damage (five point scale) [1] | POST Application SOLNI herbicidal damage (five point scale) [2] | PRE Application IPOHE herbicidal damage (five point scale) [3] | POST Application ALOMY herbicidal damage (five point scale) [4] | PRE Application SOLNI herbicidal damage (five point scale) [5] | POST Application ECHCG herbicidal damage (five point scale) [6] | PRE Application ECHCG herbicidal damage (five point scale) [7] | PRE Application AMARE herbicidal damage (five point scale) [8] | POST Application AMARE herbicidal damage (five point scale) [9] | POST Application IPOHE herbicidal damage (five point scale) [10] | PRE Application ALOMY herbicidal damage (five point scale) [11] | PRE Application SETFA herbicidal damage (five point scale) [12] |
| --- | --- | --- | --- | --- | --- | --- | --- | --- | --- | --- | --- | --- |
| COc1ccc(Cn2ncc(-c3ccc(S(C)(=O)=O)c(C4=NOCC4)c3C)c(O)c2=O)cc1 [Compound 1.002] | 1 (1=0-19% damage) | 5 (5=80-100% damage) | 1 (1=0-19% damage) | 1 (1=0-19% damage) | 1 (1=0-19% damage) | 1 (1=0-19% damage) | 1 (1=0-19% damage) | 1 (1=0-19% damage) | 3 (3=40-59% damage) | 2 (2=20-39% damage) | 1 (1=0-19% damage) | 1 (1=0-19% damage) |
| Cn1ncc(-c2ccc(COCC(F)(F)F)cc2S(C)(=O)=O)c(O)c1=O [Compound 2.053] | 2 (2=20-39% damage) | 5 (5=80-100% damage) | 1 (1=0-19% damage) | 3 (3=40-59% damage) | 5 (5=80-100% damage) | 3 (3=40-59% damage) | 5 (5=80-100% damage) | 5 (5=80-100% damage) | 5 (5=80-100% damage) | 5 (5=80-100% damage) | 3 (3=40-59% damage) | 2 (2=20-39% damage) |
| Cc1c(-c2c(C#N)nn(C)c(=O)c2O)ccc(S(C)(=O)=O)c1C1=NOCC1 [Compound 2.025] | 1 (1=0-19% damage) | 5 (5=80-100% damage) | 5 (5=80-100% damage) | 2 (2=20-39% damage) | 5 (5=80-100% damage) | 4 (4=60-79% damage) | 1 (1=0-19% damage) | 5 (5=80-100% damage) | 5 (5=80-100% damage) | 4 (4=60-79% damage) | 1 (1=0-19% damage) | 1 (1=0-19% damage) |
| Cc1cc(C)c2cc(-c3cnn(C)c(=O)c3O)c(C(F)(F)F)nc2n1 [Compound 5.002] | 2 (2=20-39% damage) | 5 (5=80-100% damage) | 3 (3=40-59% damage) | 1 (1=0-19% damage) | 1 (1=0-19% damage) | 3 (3=40-59% damage) | 2 (2=20-39% damage) | 5 (5=80-100% damage) | 5 (5=80-100% damage) | 5 (5=80-100% damage) | 1 (1=0-19% damage) | 1 (1=0-19% damage) |
| Cn1ncc(-c2ccc(C(F)(F)F)nc2S(=O)(=O)N2CCOCC2)c(O)c1=O [Compound 4.016] | 5 (5=80-100% damage) | 5 (5=80-100% damage) | 5 (5=80-100% damage) | 5 (5=80-100% damage) | 5 (5=80-100% damage) | 5 (5=80-100% damage) | 5 (5=80-100% damage) | 5 (5=80-100% damage) | 5 (5=80-100% damage) | 5 (5=80-100% damage) | 5 (5=80-100% damage) | 5 (5=80-100% damage) |
